Values joined by “and” are separate entries in the source; they are usually repeats but may differ in a detail not shown here. Equal entries are not always repeated.
Experiment: Solubility of the diastereomers in several solvent systems (mobile phases)
Format: physicochemical
Experimental: In order to have a concentrated sample for loading on the simulated moving bed separation system, a high degree of solubility in the mobile phase to be used for the separation is desirable. Therefore, the solubility of the 1-nitro-3-benzyl-3-(N-ethoxycarbonyl)amino-2-propanol diastereomers in several solvent systems was determined.

% Solubility (mobile phase 10% ethyl acetate/90% methylene chloride): 3.8%
% Solubility (mobile phase 40% water/60% methanol): 1.7%
% Solubility (mobile phase 50% heptane/50% THF): 20%
% Solubility (mobile phase 50% heptane/50% ethyl acetate): 3.81%
% Solubility (mobile phase 50% methanol/50% THF): 78%
% Solubility (mobile phase 60% water/40% acetonitrile): 3.29%
% Solubility (mobile phase 70% heptane/30% THF): 4%
% Solubility (mobile phase 70% heptane/30% ethanol): 20%
% Solubility (mobile phase 70% heptane/30% ethyl acetate): 1.11% and 1.09% and 1.31%
% Solubility (mobile phase 70% heptane/30% isopropanol): 0.36%
% Solubility (mobile phase 80% heptane/20% ethanol): 0.31% and 1.86%
% Solubility (mobile phase 80% toluene/20% THF): 6%
% Solubility (mobile phase 100% methanol): 40%
SMILES: CCOC(=O)NC(Cc1ccccc1)C(O)C[N+](=O)[O-] (single isomer, unassigned) [1-nitro-3-benzyl-3-benzyl-3-(N-ethoxycarbonyl)amino-2-propanol diastereomers, 1-nitro-3-benzyl-3-(N-ethoxycarbonyl)amino-2-propanol]

From patent US20030040644A1, “Synthesis of nitroalcohol diastereomers” (Pharm-Eco Laboratories, Inc., priority 1999, published 2003)
